Numbered stars: 1 amine (or outer) side, 2 acyl side, 3 side chain; on linkers, the order of the positions; unused ones are H or OH. Bridge positions count the residues as written; N and C are the ends. Square brackets hold non-standard residues; d marks the D form. Peptide text beside a SMILES is read from it. I, II: the chains in the order shown. Actinocin(9to1) = Cc1c2oc3c(C)ccc(C(=O)[*:1])c3nc-2c(C(=O)[*:2])c(N)c1=O; NMeV = CN[C@H](C(=O)O)C(C)C; Sar = CNCC(=O)O
What was measured:
NIH 3T3 cells = assay: Apoptosis induction and its reversal in NIH 3T3 cells (morphology, caspase-3 Western blot); assay type: cell-based
[1] = tested on: liver cells and NIH 3T3 cells; assay: Transient actinomycin D exposure after removal of apoptotic inducers (caspase-3 Western blot, trypan blue exclusion); assay type: cell-based
Experimental: FIG. 14A-14F: Critical contributing factors in reversal of apoptosis. (FIG. 14A) RNA blot for detecting new RNA synthesis in untreated vs. treated and washed (Washed) liver cells 1 h after a 5-h exposure to 4.5% ethanol and with and without transient exposure (1 h, 1 μg/ml) to actinomycin D (AMD). No s4U served as negative control for the probe binding to RNA. (FIG. 14B) Western blot analysis of the cleavage of caspase-3 (Casp-3) on the total lysate of untreated, treated (5-h exposure to 4.5% ethanol for liver cells, 20-h exposure to 10% DMSO for NIH 3T3 cells), and washed liver cells and NIH 3T3 cells with and without transient exposure to actinomycin D (AMD) immediately after removal of apoptotic stimuli. The AMD-exposed cells were cultured in fresh medium for 23 h and then subjected to the analysis. c, cleaved form. […] The AMD exposed-cells were cultured in fresh medium for 23 h and then subjected to the assay. ns, p>0.05; *p<0.05; n=3 independent experiments. Error bars denote SD. (FIG. 14D) A time-course microarray study in liver cells, log 2-fold change of gene expression comparison between ethanol-induced apoptotic cells (RO), untreated cells (Ctrl), and induced cells that were then washed and further cultured in fresh medium for 3 (R3), 6 (R6), 24 (R24), and 48 h (R48). The log 2 signal values from three biological replicates were averaged (geometric mean) for each time point. […] The corresponding cells were exposed to the inhibitors after apoptotic stimuli had been removed from the treated cells and then further cultured for 24 h. ns, p>0.05; *P<0.05; n=3 independent experiments. Error bars denote SD. (FIG. 14F) Proposed model for reversal of apoptosis. Expression of multiple prosurvival factors and new transcripts during reversal of apoptosis promotes cell survival by suppressing the activated apoptotic pathways and repairing the cells.
To gain insight into the mechanism by which cells reverse apoptosis and survive, we first tested whether new transcription is required. […]

[2] = tested on: primary mouse macrophages; assay: Apoptosis induction and its reversal in primary macrophages (morphology); assay type: cell-based
[3] = tested on: primary mouse liver cells
HeLa cells = assay: Apoptosis induction and its reversal in HeLa cells expressing caspase biosensor NES-DEVD-YFP-NLS
[4] = tested on: Mustela putoris furo (Mpf) brain cells; assay: Apoptosis induction and its reversal in Mpf brain cells (morphology, annexin V-FITC); assay type: cell-based, ferret
[5] = transient exposure (1 h, 1 μg/ml) immediately after removal of apoptotic stimuli, then 23 h fresh medium
[6] = 4.3% ethanol 5 h, washed, cultured 2 h

In the case of `C[S+](C)[O-]` [DMSO, dimethyl sulfoxide], the “cells that reversed all signs of apoptosis after removal of the inducer” value (NIH 3T3 cells; 10% DMSO 20 h, then washed, 24 h) is reported as > 90%, the “NIH 3T3 cells exhibiting multiple hallmarks of apoptosis” value (NIH 3T3 cells; 10% DMSO for 20 h) is reported as > 90% and the “caspase-3 cleavage (Western blot)” value (NIH 3T3 cells; NIH 3T3 cells induced with DMSO) is reported as “increase in cleaved caspase-3”.
With `Cc1c2oc3c(C)ccc(C(=O)N[C@@H]4C(=O)N[C@H](C(C)C)C(=O)N5CCC[C@H]5C(=O)N(C)CC(=O)N(C)[C@@H](C(C)C)C(=O)O[C@@H]4C)c3nc-2c(C(=O)N[C@@H]2C(=O)N[C@H](C(C)C)C(=O)N3CCC[C@H]3C(=O)N(C)CC(=O)N(C)[C@@H](C(C)C)C(=O)O[C@@H]2C)c(N)c1=O` [actinomycin D] (I: T[dV]P[Sar][NMeV] / II: T[dV]P[Sar][NMeV]; ester I:1-I:C, II:1-II:C; linker I:N-II:N via Actinocin(9to1)) the “cell death in control cells not treated with apoptotic inducers” value ([1]; same concentration of actinomycin D) was “did not cause significant cell death”, the “caspase-3 cleavage (Western blot) after removal of apoptotic inducers” value [1, 5] was “persistence of cleaved caspase-3” and the “cell death by trypan blue staining after removal of apoptotic inducers” value [1, 5] was “irreversible cell death”.
In the case of `CC(C)(O)/C=C/C(=O)[C@](C)(O)[C@H]1[C@H](O)C[C@@]2(C)[C@@H]3CC=C4[C@@H](C=C(O)C(=O)C4(C)C)[C@]3(C)C(=O)C[C@]12C` [cucurbitacin I], the “cells that recovered morphology after removal of the inducer” value (shortened to “cells that recovered morphology”) ([2]; 1 μM cucurbitacin I 24 h, then removal of inducer for 24 h) is reported as ~90% and the “cells displaying morphological hallmarks of apoptosis (nuclear condensation, mitochondrial fragmentation, cell shrinkage)” value (shortened to “cells displaying morphological hallmarks”) ([2]; 1 μM cucurbitacin I for 24 h) is reported as “Greater than 90%”.
For `CCO` [ethanol], the “cells that reversed all signs of apoptosis after removal of the inducer” value ([3]; 4.5% ethanol 5 h, then washed, 24 h) was > 90%, the “morphological hallmarks of apoptosis (cell shrinkage, plasma membrane blebbing, nuclear condensation, altered mitochondrial morphology)” value ([3]; 4.5% ethanol for 2.5 h, time-lapse live-cell microscopy) was “displayed morphological hallmarks of apoptosis” and the “liver cells that shrank and displayed morphological hallmarks of apoptosis” value ([3]; 4.5% ethanol for 5 h) was > 80%. The “caspase-3 cleavage (Western blot)” value ([3]; liver cells induced with ethanol) was “increase in cleaved caspase-3”, the “cells that recovered morphology” value (primary rat heart cells; 4.5% ethanol 5 h, then removal of inducer for 24 h) was ~90% and the “cells labeled with annexin V-FITC” value (primary rat heart cells; 4.5% ethanol 5 h, annexin V-FITC applied ten minutes before washing) was “Greater than 90%”. The “cells displaying morphological hallmarks” value (primary rat heart cells; 4.5% ethanol for 5 h) was “Greater than 90%”, the “cells that recovered normal morphology after removal of the inducer” value (HeLa cells; [6]) was > 90% and the “recovered cells that retained nuclear YFP” value (HeLa cells; [6]) was 32%. For the same compound, the “cells exhibiting morphological hallmarks of apoptosis (nuclear condensation, membrane blebbing, cell shrinkage)” value (HeLa cells; 4.3% ethanol for 3 h) was “vast majority”, the “time to regain normal morphology after removal of the apoptotic inducer” value (HeLa cells; 4.3% ethanol, then washed) was ≤ 2 h and the “formation of micronuclei after reversal of apoptosis” value (HeLa cells; after reversal of ethanol-induced apoptosis, cytokinesis-block micronucleus assay) was “Increased in formation of micronuclei”.
For `C/C1=C\[C@H](C)C[C@H](C)OC(=O)C[C@H](c2ccc(O)cc2)NC(=O)[C@@H](Cc2c(Br)[nH]c3ccccc23)N(C)C(=O)[C@H](C)NC(=O)[C@@H](C)C1` [jasplakinolide], the “cells that recovered morphology” value ([4]; 2 μM jasplakinolide 50 h, then removal of inducer for 24 h) was ~90%, the “cells labeled with annexin V-FITC” value ([4]; 2 μM jasplakinolide 50 h, annexin V-FITC applied ten minutes before washing) was “Greater than 90%” and the “cells displaying morphological hallmarks” value ([4]; 2 μM jasplakinolide for 50 h) was “Greater than 90%”.
